Data set [1] deals with T1, hT1R1/hT1R3 umami receptor (Homo sapiens, UniProt Q7RTX0+Q7RTX1).
T1 construct: expressed in transfected cells; host or cells: HEK293 derivative stably expressing Gα15, clone I-17, expression induced with mifepristone
T1 sequence (Q7RTX1 21-841): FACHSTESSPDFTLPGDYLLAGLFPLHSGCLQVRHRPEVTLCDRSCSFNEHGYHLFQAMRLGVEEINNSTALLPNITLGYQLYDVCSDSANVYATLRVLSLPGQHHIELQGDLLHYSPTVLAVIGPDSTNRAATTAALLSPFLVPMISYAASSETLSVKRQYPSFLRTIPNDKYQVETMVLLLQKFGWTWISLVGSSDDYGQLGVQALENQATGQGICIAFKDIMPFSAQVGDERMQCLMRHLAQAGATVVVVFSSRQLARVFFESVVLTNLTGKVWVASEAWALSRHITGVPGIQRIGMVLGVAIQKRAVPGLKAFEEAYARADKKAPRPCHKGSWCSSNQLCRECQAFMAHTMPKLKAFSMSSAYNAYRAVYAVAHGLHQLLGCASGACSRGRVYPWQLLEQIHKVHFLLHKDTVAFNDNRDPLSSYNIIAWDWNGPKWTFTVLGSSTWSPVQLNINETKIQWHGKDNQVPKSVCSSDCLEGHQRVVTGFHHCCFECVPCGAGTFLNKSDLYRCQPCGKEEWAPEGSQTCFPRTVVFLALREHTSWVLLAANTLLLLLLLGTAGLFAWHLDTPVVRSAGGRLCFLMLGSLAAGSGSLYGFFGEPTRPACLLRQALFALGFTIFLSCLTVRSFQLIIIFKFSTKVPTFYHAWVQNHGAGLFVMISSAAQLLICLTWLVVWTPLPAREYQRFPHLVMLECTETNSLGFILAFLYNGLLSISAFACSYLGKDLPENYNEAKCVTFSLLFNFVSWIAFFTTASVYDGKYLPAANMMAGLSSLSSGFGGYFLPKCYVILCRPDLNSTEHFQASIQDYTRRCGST
T1 sequence (Q7RTX0 21-852): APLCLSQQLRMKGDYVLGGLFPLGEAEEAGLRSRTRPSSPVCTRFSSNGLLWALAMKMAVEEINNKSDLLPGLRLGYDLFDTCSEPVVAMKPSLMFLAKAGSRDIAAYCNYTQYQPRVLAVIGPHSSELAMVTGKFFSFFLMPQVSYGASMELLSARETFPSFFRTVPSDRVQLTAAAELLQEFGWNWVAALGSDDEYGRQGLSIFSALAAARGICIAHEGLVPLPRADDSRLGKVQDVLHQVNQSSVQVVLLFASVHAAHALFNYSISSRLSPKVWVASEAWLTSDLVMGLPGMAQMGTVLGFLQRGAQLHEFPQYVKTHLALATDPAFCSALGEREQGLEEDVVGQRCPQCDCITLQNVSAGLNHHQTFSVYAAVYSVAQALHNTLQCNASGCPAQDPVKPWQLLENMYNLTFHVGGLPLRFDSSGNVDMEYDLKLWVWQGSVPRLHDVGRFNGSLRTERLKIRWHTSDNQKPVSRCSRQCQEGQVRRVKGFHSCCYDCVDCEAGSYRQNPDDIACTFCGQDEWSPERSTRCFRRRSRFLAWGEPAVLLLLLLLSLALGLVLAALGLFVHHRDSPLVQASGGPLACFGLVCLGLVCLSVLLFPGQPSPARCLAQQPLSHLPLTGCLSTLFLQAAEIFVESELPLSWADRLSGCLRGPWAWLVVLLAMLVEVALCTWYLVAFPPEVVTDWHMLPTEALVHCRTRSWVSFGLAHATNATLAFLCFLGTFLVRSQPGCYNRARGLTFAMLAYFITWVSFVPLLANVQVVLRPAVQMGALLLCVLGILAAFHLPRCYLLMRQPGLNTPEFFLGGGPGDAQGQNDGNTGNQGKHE
As to the kind of experiment: In vitro hT1R1/hT1R3 umami taste receptor activation assay (FLIPR, dose response). The following applies: read-out: EC50 for activation of a hT1R1/hT1R3 umami receptor expressed in an HEK293 cell line. The data set is classed as cell-based.

In the next data set the test system is human panelists. As to the kind of experiment: Umami/savory flavor experiments using human panelists (trained panel, difference from reference). It counts as in vivo. The following applies: savory taste; for Taste Data: concentration of cpd that with 12 mM MSG is as strong as 12 mM MSG + 100 μM IMP: aqueous solution with 12 mM MSG; for Taste Data: concentration of cpd (alone) as strong as 12 mM MSG: without MSG. As to the method: General Panelist Selection: Basic screening of sensory taste testers: Potential panelists were tested for their abilities to rank and rate intensities of solutions representing the five basic tastes. Panelists ranked and rated intensity of five different concentrations of each of the five following compounds: sucrose (sweet), sodium chloride (salty), citric acid (sour), caffeine (bitter), and monosodium glutamate (savory). In order to be selected for participation in testing, panelists needed to correctly rank and rate samples for intensity, with a reasonable number of errors. […]
Trained Panelist Selection: A trained expert panel was used to further evaluate compounds that had been tested with the preliminary taste test.
Panelists for the trained panel were selected from the larger group of qualifying taste panelists. Panelists were further trained on savory taste by ranking and rating experiments using MSG and IMP combinations. Panelists completed a series of ranking, rating, and difference from reference tests with savory solutions. In ranking and rating experiments, panelists evaluated easy MSG concentrations (0, 6, 18, 36 mM) and more difficult MSG concentrations (3, 6, 12, 18 mM MSG) in water.
Compound testing with Trained Panel: Compounds tested by the trained panel were evaluated in difference from reference experiments. […] Test samples were solutions with varying amounts of MSG, IMP, and the compound. Typically, each session compares the reference sample to numerous test samples. […] Compounds were tested against the reference in samples with and without 12 mM MSG. All samples were presented in 10 ml volumes at room temperature. Two sessions were completed for each compound tested to evaluate panel reproducibility.

Experimental findings from patent publication US20060045953A1 (priority 2004, published 2006) are described below.

For `COc1cc(C)ccc1CNC(=O)C(=O)NCCc1ccc(C)cn1` [Example 157, N^1-(2-methoxy-4-methylbenzyl)-N^2-(2-(5-methylpyridin-2-yl)ethyl)oxalamide], the melting point lay in the range of 133.5 to 134 °C. The EC50 in data set [1] amounted to 30 nM. In the data set on human panelists, the “Taste Data: concentration of cpd that with 12 mM MSG is as strong as 12 mM MSG + 100 μM IMP” value (“Taste Data: concentration of cpd that” below) is 12 mM MSG + 0.3 μM cpd as strong and the “Taste Data: concentration of cpd (alone) as strong as 12 mM MSG” value was 0.3 μM cpd as strong as 12 mM MSG.
For `COc1cc(C)ccc1CNC(=O)C(=O)NCCc1ccccn1` [Example 132, N-(2-methoxy-4-methylbenzyl)-N′-(2-(pyridin-2-yl)ethyl)oxalamide], in that order: 128 to 131 °C, 40 nM, 12 mM MSG + 1 μM cpd as strong as and 1 μM cpd as strong as 12 mM MSG.
For the molecule `COC(=O)[C@@H](CC(C)C)NC(=O)c1cc(C)c(C)o1` [Example 98, (R)-methyl 2-(2,3-dimethylfuran-5-carboxamido)-4-methylpentanoate], the EC50 in data set [1] worked out at 590 nM. In addition, the “Taste Data: concentration of cpd that” value in the data set on human panelists was 12 mM MSG + 10 μM cpd as strong as.
The matching figures for `COC(=O)[C@@H](CC(C)C)NC(=O)c1ccc2c(c1)OCO2` [Example 6, (R)-methyl 2-(benzo[d][1,3]dioxole-6-carboxamido)-4-methylpentanoate]: 340 nM and 12 mM MSG + 10 μM cpd as strong as.
Take `COC[C@@H](CC(C)C)NC(=O)c1ccc(C)c(C)c1` [Example 71, (R)-N-(1-methoxy-4-methylpentan-2-yl)-3,4-dimethylbenzamide]: in data set [1], the EC50 is 200 nM. Further, the “Taste Data: concentration of cpd that” value in the data set on human panelists is listed as 12 mM MSG + 3 μM cpd as strong as.

Usually melting point stands for the temperature, or range, at which the solid turns liquid.
